Legend:
[1] = test system: LS180; assay: Proliferation inhibition experiment, LS180 (CRC); type: cell-based; conditions: EGFR R521K, KRAS G12D
Experimental: • (1) NSCLC: plated at 1500-2500 cells/100 μL in a 96-well low-adsorption plate (Corning, CLS7007-24EA) for 3D cell culture, in which the following cell lines and specific amounts were used: • NSCLC: 2000 cells/100 μL/well • NCI-H292: Cell Bank of the Chinese Academy of Sciences, SCSP-582 • NCI-H322: Cobioer, CBP60134 • NCI-H1650: ATCC, CRL-5883 • NCI-H1975: ATCC, CRL-5908 • SK-MES-1: CoBioer, CBP60152 • NCI-H1703: ATCC, HTB-43 • PC9+hB7H3: constructed as described above • CRC and HNSCC: plated at 1500-2000 cells/100 μL in a 96-well white-bottom plate (NUNC, 136101) for 2D cell culture, in which the following cell lines and specific amounts were used: • CRC: 1500 cells/100 μL/well • CCK-81: CoBioer, CBP60581 • HT-55: CoBioer, CBP60012 • H508: CoBioer, CBP60795 • LS180: CoBioer, CBP60034 • HNSCC: 1500 cells/100 μL/well • TE-1: CoBioer, CBP60655 • Colo680: CoBioer, CBP60452. […]

[2] = test system: H1703; type: cell-based, human; conditions: EGFR Amplification, KRAS WT, huPBMC:target 50:1, 8 h, LDH
Experimental: • (1) A CTS medium (Gibco, A3021002) was preheated at 37° C. huPBMC (Miaotong Biotechnology, PB 100C-W) was quickly thawed in a water bath, and then the cells were added slowly to 8 mL of CTS medium (containing 1% DNase). • (2) The mixture was centrifuged at 300 g for 8 min. The supernatant was removed, and the cells were resuspended in 30 mL of CTS (containing 10 μL of DNase), transferred to a T75 flask, and incubated in an incubator at 37° C. overnight. • (3) The suspension cells cultured overnight were taken and centrifuged at 300 g for 8 min. The supernatant was removed, and the cell density was adjusted with CTS. According to an effector/target ratio of effector cells (huPBMCs) to target cells (tumor cells in Table 5) of 50:1, huPBMCs and the tumor cells prepared in advance (Target: huPBMC=1.5E4/7.5E5 cells/well/100 μL) were plated in a 96-well low-adsorption plate (Corning. CLS7007-24EA). • (4) The diluted antibody drug was added to the corresponding cell well plate and cultured at 37° C. with 5% CO2 for 8 h. • (5) The mixture was centrifuged at 300 g for 5 min. 50 μL of the supernatant was transferred to a 96-well transparent flat-bottom plate ((NUNC, 136101), 50 μL of the LDH reagent (Promega, G1780) prepared in advance was added to the corresponding well plate, and the plate was left to stand at room temperature for 15-30 min in the dark. • (6) 50 μL LDH stop solution (Promega, G1780) was taken and detected by a multimode microplate reader (Molecular Devices, Spectra MAXi3) at 490 nm for readings.

In the case of zalutumumab [Zalu mAb], the “Max inhibition (%) Mean ± SD” value [1] is reported as 41.0 ± 2.2% and the EC50 [2] is reported as 7 pM.

— patent US20250381269A1, “BISPECIFIC ANTIBODY BINDING EGFR AND B7-H3” (FORTVITA BIOLOGICS (SINGAPORE) PTE. LTD., priority 2022, published 2025)
